According to US9815851B2, “Pyrrolo carboxamides as modulators of orphan nuclear receptor RAR-related orphan receptor-gamma (RORγ, NR1F3) activity and for the treatment of chronic inflammatory and autoimmune diseases” (PHENEX PHARMACEUTICALS AG, priority 2011, dated 2017):
Like-named read-outs stand apart in the source and are kept apart here.

What was measured:
[1] = molecular target: T1, RORγ ligand binding domain (LBD) (Homo sapiens, UniProt P51449); test: TR-FRET Activity Assay (ligand sensing, RORγ-LBD / coactivator peptide interaction, LANCE); assay type: biochemical
T1 construct: made in house; host or cells: E. coli BL-21 (BL3), vector pDEST15
T1 sequence (P51449 269-508 limits assumed): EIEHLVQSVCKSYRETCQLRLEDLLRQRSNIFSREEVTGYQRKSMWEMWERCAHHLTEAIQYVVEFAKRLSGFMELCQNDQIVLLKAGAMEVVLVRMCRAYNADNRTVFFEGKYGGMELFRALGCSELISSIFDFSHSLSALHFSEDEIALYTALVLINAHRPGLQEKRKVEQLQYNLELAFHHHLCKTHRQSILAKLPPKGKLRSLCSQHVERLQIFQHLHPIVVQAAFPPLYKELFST

RORγ = molecular target: T2, RORγ (UniProt P51449); test: RORγ Gal4 Reporter Gene Assay in 293T cells (firefly and renilla luciferase); assay type: cell-based, human
T2 sequence (P51449 1-518): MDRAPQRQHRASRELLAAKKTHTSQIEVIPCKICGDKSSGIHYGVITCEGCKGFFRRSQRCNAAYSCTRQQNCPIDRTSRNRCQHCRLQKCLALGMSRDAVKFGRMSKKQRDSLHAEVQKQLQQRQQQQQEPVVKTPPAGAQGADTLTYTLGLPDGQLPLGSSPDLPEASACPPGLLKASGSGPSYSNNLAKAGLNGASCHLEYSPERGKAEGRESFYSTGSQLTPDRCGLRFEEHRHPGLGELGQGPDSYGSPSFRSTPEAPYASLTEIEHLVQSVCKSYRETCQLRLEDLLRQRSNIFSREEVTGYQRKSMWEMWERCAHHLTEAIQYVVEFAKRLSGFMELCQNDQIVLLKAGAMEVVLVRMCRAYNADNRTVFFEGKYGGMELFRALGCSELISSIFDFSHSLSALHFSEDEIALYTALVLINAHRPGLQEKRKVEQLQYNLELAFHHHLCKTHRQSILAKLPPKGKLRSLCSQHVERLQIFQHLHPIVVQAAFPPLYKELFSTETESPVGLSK

[2] = first value of the cell FRET/FF/REN, TR-FRET activity assay, read-out: pIC50 (FRET) (converted)
[3] = second value of the cell, Gal4 reporter gene assay in 293T cells, firefly luciferase
[4] = third value of the cell, Gal4 reporter gene assay in 293T cells, renilla normalised luciferase

Compound | IC50 [1] | pIC50 (FF) (RORγ) | pIC50 (REN) (RORγ) | IC50 [1, 2] | pIC50 (FF) (RORγ; [3]) | pIC50 (REN) (RORγ; [4])
Cc1c(C(=O)NC2CC(=O)C2)cc(-c2cc(C(C)(C)C)c3c(c2)C2(CCO3)CC2)n1CC1CCCCC1 [17/21] | 631 nM | 6.2/7.0/6.9 | 6.2/7.0/6.9 |  |  | 
Cc1c(C(=O)NC2CCOCC2)cc(-c2cc(Cl)c(S(=O)(=O)NC(C)(C)C)c(Cl)c2)n1CC1CCCCC1 [17/235] |  |  |  | 200 nM | 7.6 | 7.6
Cc1c(C(=O)NCC(C)(C)O)cc(-c2cc(C(C)(C)C)cc(C(=O)NC(C)(C)C)c2Cl)n1CC1CCCCC1 [17/367] |  |  |  | 5010 nM | 6.4 | 6.1
Cc1c(C(=O)NC2COC2)cc(-c2cc(OCC(C)(C)C)nc(C(F)(F)F)c2)n1CC1CCCCC1 [1/16] |  |  |  | 6310 nM | 6.1 | 5.8
CNC(=O)C1(CNC(=O)c2cc(-c3ccc(S(=O)(=O)NC(C)(C)C)c(C(F)(F)F)c3)n(CC3CCCCC3)c2C)CCOCC1 [17/205] |  |  |  | 794 nM | 6.9 | 7.0
Cc1c(C(=O)NC2CCS(=O)(=O)CC2)cc(-c2cc(C(C)(C)O)cc(C3(C)CC3)c2)n1CC1CCCCC1 [17/321] |  |  |  | 1000 nM | 7.3 | 7.3
Cc1c(C(=O)NC2COC2)cc(-c2cc(C(C)(C)C)cc(C(C)(C)C)c2)n1CC1CC2CCC1C2 (stereo not drawn) [1/117] |  |  |  | 501 nM | 6.8 | 7.0
Cc1c(C(=O)NCC2(C(N)=O)CCOCC2)cc(-c2cc(C(C)(C)O)cc(C3(C)CC3)c2)n1CC1CCCCC1 [17/318] |  |  |  | 2000 nM | 7.7 | 7.6
Cc1c(C(=O)NCC(C)(C)O)cc(-c2cc(C(=O)NC(C)(C)C)cc(C(C)(C)C)c2)n1CC1CCCCC1 [15/8] | 1000 nM | 6.0/7.3/7.4 | 6.0/7.3/7.4 |  |  | 
Cc1c(C(=O)NCCCCN2CCOCC2)cc(-c2cc(C(C)(C)C)cc(C(C)(C)C)c2)n1CC1CCCCC1 [1/74] | 5010 nM | 5.3/<4.7/<4.7 | 5.3/<4.7/<4.7 |  |  | 
Cc1c(C(=O)NC2COC2)cc(-c2cc(C(C)(C)C)cc(C(C)(C)C)c2)n1CC1CCC(C)CC1 (stereo not drawn) [1/114] |  |  |  | 251 nM | 6.7 | 6.8
CC(C)(C)NS(=O)(=O)c1ccc(-c2cc(C(=O)NC3CCOCC3)c(Cl)n2CC2CCCCC2)cc1C(C)(C)C [17/119] |  |  |  | 501 nM | 7.6 | 7.7
CCC(C)(C)NS(=O)(=O)c1ccc(-c2cc(C(=O)NC3CCOCC3)c(C)n2CC2CCCCC2)cc1C(F)(F)F [17/83] |  |  |  | 126 nM | 8.2 | 8.3
Cc1c(C(=O)NCC(C)(C)C(N)=O)cc(-c2cc(C(C)(C)C)cc(C(C)(C)C)c2)n1CC1CCCCC1 [1/3] | 398 nM | 6.4/7.6/7.5 | 6.4/7.6/7.5 |  |  | 
Cc1c(C(=O)NCCC(C)(C)C(=O)O)cc(-c2ccc(S(=O)(=O)NC(C)(C)C)c(OC(F)(F)F)c2)n1CC1CCCCC1 [17/172] |  |  |  | 398 nM | 7.5 | 7.5
Cc1c(C(=O)N[C@H]2C[C@H](C(=O)O)C2)cc(-c2cc(C(C)(C)O)cc3ccccc23)n1CC1CCCCC1 [17/187] |  |  |  | 15800 nM | < 4.7 | < 4.7
Cc1c(C(=O)NC2CCOCC2)cc(-c2ccc(S(=O)(=O)NC(C)(C)C)c(C(F)(F)F)c2)n1CC1CC(F)(F)C1 [17/133] |  |  |  | 1260 nM | 6.3 | 6.3
Cc1c(C(=O)NC2CCOCC2)cc(C2=NN(C(=O)NC(C)(C)C)C3(CCCCC3)C2)n1CC1CCCCC1 [Example 24, N-(tert-Butyl)-3-(1-(cyclohexylmethyl)-5-methyl-4-((tetrahydro-2H-pyran-4-yl)carbamoyl)-1H-pyrrol-2-yl)-1,2-diazaspiro[4.5]dec-2-ene-1-carboxamide] |  |  |  | 3160 nM | 6.4 | 6.4
Cc1c(C(=O)NC23CCC(C(=O)O)(CC2)C3)cc(-c2cc(C(C)(C)O)cc(C3(C)CC3)c2)n1CC1CCCCC1 [17/301] |  |  |  | 2000 nM | 7.6 | 7.6
Cc1c(C(=O)NCC(C)(C)C(=O)N(C)C)cc(-c2cc(C(C)(C)C)c3c(c2)C2(CCO3)CC2)n1CC1CCCCC1 [11/2] |  |  |  | 251 nM | 6.9 | 6.9

Compound | IC50 [1] | pIC50 (FF) (RORγ) | pIC50 (REN) (RORγ) | IC50 [1, 2] | pIC50 (FF) (RORγ; [3]) | pIC50 (REN) (RORγ; [4])
Cc1c(C(=O)N[C@H]2CC[C@@H](C(=O)O)CC2)cc(-c2cc(C(C)(C)C)c3c(c2)C2(CCO3)CC2)n1CC1CCCCC1 [17/58] |  |  |  | 1580 nM | 6.7 | 6.7
Cc1c(C(=O)NCC(C)(C)NC(=O)C(C)O)cc(-c2cc(C(C)(C)C)c3c(c2)C2(CCO3)CC2)n1CC1CCCCC1 (stereo not drawn) [17/123] | 3160 nM | 5.5/7.0/7.0 | 5.5/7.0/7.0 |  |  | 
Cc1c(C(=O)NC2CCOCC2)cc(-c2cc(C(F)(F)F)cc(C3(C)CC3)c2)n1CC1CCCCC1 [17/297] |  |  |  | 126 nM | 7.2 | 7.4
Cc1c(C(=O)NC2C[S+]([O-])C2)cc(-c2ccc(S(=O)(=O)NC(C)(C)C)c(C(C)(C)C)c2)n1CC1CCCCC1 (stereo not drawn) [2/1] | 794 nM | 6.1/6.5/6.5 | 6.1/6.5/6.5 |  |  | 
Cc1c(C(=O)NC2CCOCC2)cc(-c2ccc(S(=O)(=O)NC3(C)COC3)c(C(F)(F)F)c2)n1CC1CCCCC1 [17/145] |  |  |  | 631 nM | 7.6 | 7.7
Cc1c(C(=O)NC2CCOCC2)cc(-c2cc3c(c(C(C)(C)C)c2)OCCC3F)n1CC1CCCCC1 (stereo not drawn) [18/4] |  |  |  | 794 nM | 6.3 | 6.5
Cc1c(C(=O)NCCCCCS(C)(=O)=O)cc(-c2cc(C(C)(C)C)c3c(c2)C2(CCO3)CC2)n1CC1CCCCC1 [17/4] | 631 nM | 6.2/6.7/6.7 | 6.2/6.7/6.7 |  |  | 
COC1(c2cc(-c3cc(C(=O)NC4CCOCC4)c(C)n3CC3CCCCC3)ccc2S(=O)(=O)NC(C)(C)C)CC1 [17/164] |  |  |  | 1260 nM | 6.4 | 6.5
Cc1c(C(=O)NCC(C)(C)O)cc(-c2cn(S(=O)(=O)N3CCCCC3)c3ccccc23)n1CC1CCCCC1 [9/2] |  |  |  | 631 nM | 7.4 | 7.5
Cc1c(C(=O)NC2COC2)cc(-c2ccc(S(=O)(=O)NC(C)(C)C)c(C(C)(C)C)c2)n1CC1CCCCC1 [9/4] |  |  |  | 631 nM | 7.1 | 7.2
Cc1c(C(N)=O)cc(-c2ccc(S(=O)(=O)NC(C)(C)C)c(C(C)(C)C)c2)n1CC1CCCCC1 [1/13] |  |  |  | 1260 nM | 6.2 | 6.1
Cc1c(C(=O)NCCCCO)cc(-c2cc(C(C)(C)C)cc(C(C)(C)C)c2)n1CC1CCCCC1 [1/66] |  |  |  | 398 nM | 6.7 | 6.8
Cc1c(C(=O)NC2COC2)cc(-c2cc(C(=O)NC(C)C)cc(C(C)(C)C)c2)n1CC1CCCCC1 [15/6] |  |  |  | 1260 nM | 7.4 | 7.4
CC(C)(C)NS(=O)(=O)c1ccc(-c2cc(C(=O)NCC3(O)CCOCC3)c(C(F)(F)F)n2CC2CCCCC2)cc1C(C)(C)C [1/27] |  |  |  | 12600 nM | < 4.7 | < 4.7
Cc1c(C(=O)N[C@H]2C[C@H](C(=O)O)C2)cc(-c2cc(C(=O)N[C@@H](C)C(F)(F)F)cc(C3(C)CC3)c2)n1CC1CCCCC1 [17/358] |  |  |  | 1000 nM | 6.3 | 6.2
Cc1c(C(=O)N[C@H]2C[C@H](C(=O)O)C2)cc(-c2cc(C(C)(C)O)cc(C(F)(F)F)c2)n1CC1CCCCC1 [17/307] |  |  |  | 3160 nM | 6.2 | 6.0
Cc1c(C(=O)N[C@H]2C[C@H](C(=O)O)C2)cc(-c2cc(C(C)(C)C)cc(C3(O)CC3)c2)n1CC1CCCCC1 [17/155] |  |  |  | 631 nM | 7.0 | 7.0
Cc1c(C(=O)NC2CCOCC2)cc(-c2ccc(S(=O)(=O)NC(C)(C)C)c(C(F)(F)F)c2)n1CC1CCC(F)CC1 (stereo not drawn) [17/257] | 501 nM | 6.3/7.4/7.6 | 6.3/7.4/7.6 |  |  | 
COCc1c(C(=O)NCC(C)(C)O)cc(-c2ccc(S(=O)(=O)NC(C)(C)C)c(C(C)(C)C)c2)n1CC1CCCCC1 [1/28] |  |  |  | 794 nM | 6.7 | 6.8
Cc1c(C(=O)NCC(C)(C)c2nnn[nH]2)cc(-c2cc(C(C)(C)O)cc(C3(C)CC3)c2)n1CC1CCCCC1 [17/309] | 794 nM | 6.1/6.7/6.8 | 6.1/6.7/6.8 |  |  | 
